The source of these data is patent US10940139B2, “Compounds that interact with the Ras superfamily for the treatment of cancers, inflammatory diseases, rasopathies, and fibrotic disease” (Shy Therapeutics LLC, priority 2017, dated 2021).

Experiment [1] concerns TNFα production in RAW 264.7 macrophage cell line. The experiment can be described thus: Mouse TNF alpha quantification assay (LPS-stimulated macrophages, ELISA). The conditions noted are these: RAW264.7, RAW 264.7 murine leukemia virus transformed macrophage cell lines, LPS stimulation, read-out: TNF-α % Inhibition at 30 μM. In kind it is cell-based. (In general: An ELISA detects its analyte on a solid surface through an enzyme-linked reagent.)

Experiment [2] relates to IL6 production in RAW 264.7 macrophage cell line. Briefly: Mouse IL6 quantification assay (LPS-stimulated macrophages, ELISA). In kind it is cell-based. The conditions noted are these: RAW264.7, RAW 264.7 murine leukemia virus transformed macrophage cell lines, LPS stimulation, read-out: IL-6 % Inhibition at 30 μM.
In experiment [3] the target is KRas G12D/Q61H double mutant (Homo sapiens (Human), UniProt P01116, G12D/Q61H). Briefly: Ras GTP binding domain inhibition assay (labeled GTP). The method in brief: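 Labelled-GTP binding: plate-captured His-KRas protein was pre-exposed to compound for 3 h at room temperature (single 20 μM point or dilution series, 1% DMSO, Tris pH 7.5/MgCl2/DTT buffer). Cy3- or Cy5-GTP was then added for 45 min. Washed wells were read for retained fluorescence to give inhibition or IC50.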

[4] abbreviates: 20 μM compound, read-out: % Inhibition at 20 μM KRas G12D Q61H.
[5] abbreviates: 20 μM compound, KRas G12D/Q61H double mutant, read-out: % Inhibition at 20 μM of K-Ras mutant and wild-type protein, KRas G12D Q61H.
Where [6] appears, read: 20 μM, read-out: KRas G12D Q61H % Inh.

Read-outs that look alike come from different tables or passages of the source.

Chain of KRas G12D/Q61H double mutant (P01116-2 other isoform, or with tags, fused parts or gaps G12D/Q61H): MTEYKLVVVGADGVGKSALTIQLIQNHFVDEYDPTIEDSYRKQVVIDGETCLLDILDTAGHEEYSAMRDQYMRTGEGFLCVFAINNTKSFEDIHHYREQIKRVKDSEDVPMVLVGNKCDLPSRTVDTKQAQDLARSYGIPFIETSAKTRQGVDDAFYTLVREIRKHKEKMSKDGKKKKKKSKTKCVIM

In the case of `Cn1ccc(C(=O)Nc2nnc(-c3ccccn3)[nH]2)cc1=O` [drawing 1945], the inhibition at 30 µM is 1 to 25% in experiment [1] and 0% in experiment [2].
For `CCN(CC)C(=O)CN1CCN(c2nc(-c3ccccn3)nc3scc(-c4ccccc4)c23)CC1` [drawing 2150], the inhibition at 30 µM in experiment [1] was 51 to 75%; in experiment [2], 76 to 100%.
On the same counts, the results for `O=c1nc(-c2ccccn2)[nH]c2ccsc12` [drawing 2027] are 0% and 1 to 25%.
In the same order, the values of `Cn1ccnc1-c1nc(NCCOC(F)(F)F)c2c(-c3ccccc3)c(-c3ccccc3)sc2n1` [drawing 2395] are 1 to 25% and 26 to 50%.
On the same counts, the results for `O=c1nc(-c2ccccn2)[nH]c2scc(-c3cccs3)c12` [drawing 2024] are 1 to 25% and 0%.
For `Oc1nc(-c2ccccn2)nc2c(-c3cc(CN4CCCC4)ccc3F)csc12` [drawing 2324], the inhibition at 30 µM in experiment [1] is 0%; in experiment [2] it was 51 to 75%.
`CON(C)c1nc(-c2ccccn2)nc2scc(-c3ccccc3)c12` [drawing 2147]: the inhibition at 30 µM in experiment [1] was 1 to 25%; in experiment [2], 26 to 50%.
In the same order, the values of `Nc1nc(-c2ccccn2)nc2c(Br)csc12` [drawing 2284] are 0% and 26 to 50%.
In the same order, the values of `CCN(CC)S(=O)(=O)c1cc(C)c(C)c(NC(=O)CCc2c(C)nc(-c3ccccn3)nc2O)c1` [drawing 2037] are 1 to 25% and 0%.
Consider `Nc1nc(-c2ccccn2)nc(C(=O)NCCc2ccncc2)c1Oc1ccccc1` [drawing 2378], for which the inhibition at 30 µM in experiment [1] and in experiment [2] was 0% each time.
Turning to `Oc1nc(-c2ccccn2)nc2c(-c3ccc(OC4CCCC4)cc3)csc12` [drawing 2255], the inhibition at 30 µM was 0% in experiment [1] and 76 to 100% in experiment [2].
For the compound `O=C(Cc1ccc(-n2cnnn2)cc1)Nc1nnc(-c2ccccn2)[nH]1` [drawing 1927], the inhibition at 30 µM was 1 to 25% in experiment [1] and 0% in experiment [2].
For the compound `CC1(O)CCN(C(=O)c2csc3c(O)nc(-c4ccccn4)nc23)CC1` [drawing 2110], the results for the inhibition at 30 µM in experiment [1] and in experiment [2] were 0% and 51 to 75%, respectively.
In the same order, the values of `O=C(NCCc1cccnc1)c1csc2c(O)nc(-c3ccccn3)nc12` [drawing 2115] are 0% and 26 to 50%.
In the same order, the values of `CN(CC(=O)N1CCCc2c(O)nc(-c3ccccn3)nc21)S(=O)(=O)c1ccccc1` [drawing 2074] are 0% and 1 to 25%.
In the same order, the values of `COc1cnc(CN)[nH]c1=O` [drawing 2212] are 1 to 25% and 0%.
`Cc1ccc(CC(=O)Nc2nnc(-c3ccccn3)[nH]2)s1` [drawing 1975]: the inhibition at 30 µM in experiment [1] is 0%; in experiment [2] it was 1 to 25%.
On the same counts, the results for `O=C(Nc1nnc(-c2ccccn2)[nH]1)c1csc(-c2ccco2)n1` [drawing 1994] are 0% and 51 to 75%.
Consider `Cc1c(C(=O)O)sc2c(O)nc(-c3ccccn3)nc12` [drawing 2313], for which the inhibition at 30 µM in experiment [1] and in experiment [2] was 76 to 100% in each case.
`O=C(Nc1nnc(-c2ccccn2)[nH]1)C1Cc2ccccc2O1` (stereo not drawn) [drawing 1965]: the inhibition at 30 µM in experiment [1] was 0%; in experiment [2], 1 to 25%.
In the same order, the values of `O=C(c1csc2c(O)nc(-c3ccccn3)nc12)N1CCN(c2ccc(F)cc2F)CC1` [drawing 2185] are 0% and 76 to 100%.
In the same order, the values of `CS(=O)(=O)Cc1ccc(C(=O)Nc2nc(-c3ccccn3)cs2)cc1` [drawing 2013] are 1 to 25% and 0%.
In the same order, the values of `COc1cccc(CCC(=O)Nc2nnc(-c3ccccn3)[nH]2)c1` [drawing 1928] are 1 to 25% and 0%.
Regarding `O=C(Nc1nc(-c2ccccn2)cs1)c1ccc2[nH]cnc2c1` [drawing 2012], the inhibition at 30 µM in experiment [1] lay in the range of 1 to 25%; in experiment [2], 26 to 50%.
For the compound `Cc1ccc(-c2csc3c(O)nc(-c4ccccn4)nc23)cc1` [drawing 2387], the inhibition at 30 µM in experiment [1] was 1 to 25%; in experiment [2] it was 0%.
In the same order, the values of `O=C(c1csc2c(O)nc(-c3ccccn3)nc12)N1CCN(c2ccc(F)cc2)CC1` [drawing 2180] are 0% and 26 to 50%.
With `N#Cc1cccc(-c2csc3c(O)nc(-c4ccccn4)nc23)c1` [drawing 2325], the results for the inhibition at 30 µM in experiment [1] and in experiment [2] were 0% and 26 to 50%, respectively.
In the same order, the values of `Oc1nc(-c2ncccn2)nc2c(-c3cccc(C(F)(F)F)c3)csc12` [drawing 2435] are 26 to 50% and 1 to 25%.
In the same order, the values of `Nc1nc(O)c2scc(-c3ccccc3Cl)c2n1` [drawing 2119] are 0% and 26 to 50%.
For the compound `Cc1nc(-c2ccccn2)[nH]c(=O)c1CCO`, the inhibition at 20 µM in experiment [3] (setting [4]) is 25 to 50%.
In the case of `Cc1nc(CN(C)CC23CC4CC(CC(C4)C2)C3)oc1C`, the inhibition at 20 µM in experiment [3] (setting [5]) was in the range of 1 to 25%.
Consider `Cn1cc(C2CC2C(=O)Nc2nnc(-c3ccccn3)[nH]2)cn1` (stereo not drawn) [drawing 2457], for which, in experiment [3] (setting [6]), the inhibition at 20 µM lay within 51 to 75%.
With `CN(c1ccccc1)c1ccccc1NCc1nnnn1-c1ccccc1`, the inhibition at 20 µM in experiment [3] (setting [4]) lay in the range of 1 to 25%.
For the compound `N#CCc1ccc(OCC(=O)Nc2nnc(-c3ccccn3)[nH]2)cc1` [drawing 2552], the inhibition at 20 µM in experiment [3] (setting [6]) was in the range of 51 to 75%.
Turning to `CC(C)(COc1ncccc1C(F)(F)F)Nc1nccc(C(F)(F)F)n1`, the inhibition at 20 µM in experiment [3] (setting [5]) fell in the range of 25 to 50%.
For `O=C(Nc1nnc(-c2ccccn2)[nH]1)c1cc(Cl)sc1Cl`, the inhibition at 20 µM in experiment [3] (setting [4]) was in the range of 25 to 50%.
Same read-out and setting: to `O=C(c1csc2c(O)nc(-c3ccccn3)nc12)N1CCNC(c2cccc(Cl)c2)C1` (stereo not drawn) belongs 25 to 50%.
Regarding `CCN(C(=O)c1cccc(-n2cccn2)c1)c1ccc(C#N)c(Cl)c1`, the inhibition at 20 µM in experiment [3] (setting [5]) was in the range of 1 to 25%.
Still for that read-out and setting: then `CCn1c(SCCCc2nc3ccccc3o2)nc2ccsc2c1=O`, with 1 to 25%.
As to `OC[C@H]1C=C[C@@H](Nc2nc(-c3ccccn3)nc3c2CCC3)C1`, the inhibition at 20 µM in experiment [3] (setting [4]) fell in the range of 25 to 50%.
For `c1ccc(-c2csc3nc(-c4ccccn4)nc(NCCN4CCOCC4)c23)cc1`, in experiment [3] (setting [4]), the inhibition at 20 µM was in the range of 25 to 50%.
Still for that read-out and setting: then `Cc1cnc(-c2ccccn2)nc1NC(=O)COCc1ccc(C#N)cc1` [drawing 2815], with 25 to 50%.
Turning to `COC(=O)c1ccc(COC(=O)c2oc3ccccc3c2COC(C)C)o1`, the inhibition at 20 µM in experiment [3] (setting [5]) lay within 25 to 50%.
For `FC(F)n1ccnc1CCNCc1csc(COc2ccccc2)n1`, the inhibition at 20 µM in experiment [3] (setting [5]) lay within 51 to 75%.
Same read-out and setting: to `O=C(Cc1ccccc1[N+](=O)[O-])N1CCCC1C1CCCC1` (stereo not drawn) belongs 1 to 25%; to `CCN1CCN(Cc2ccc(NC(=O)c3cc(OC)c(OC)cc3OC)cc2)CC1`, 1 to 25%.
For `Cc1ccc(-c2cc(C(=O)N(C3CC3)C(C)c3ccco3)on2)cc1` (stereo not drawn), the inhibition at 20 µM in experiment [3] (setting [4]) was in the range of 25 to 50%.
Still for that read-out and setting: then `CC(=O)N1CCC(Nc2nc(-c3ccccn3)nc3c2CCC3)C1` (stereo not drawn), with 25 to 50%.
On the same count and under the same terms, then `Cc1ccc(OCc2nnc(SCC3CCCCO3)o2)cc1` (stereo not drawn), with 1 to 25%.
For `CCC(C)(C)c1ccc(Oc2ccc(NC(=O)NS(=O)(=O)c3ccc(C)cc3)cc2)cc1`, the inhibition at 20 µM in experiment [3] (setting [5]) lay in the range of 51 to 75%.
Still for that read-out and setting: then `COc1cccc(-c2nc(C(=O)N3CCC(c4ccccc4)CC3)c[nH]2)c1OC`, with 25 to 50%; and `C=CCOc1ccc(C(=O)c2ccccc2)c(OCC(=O)NC2(C#N)CCCC2)c1`, with 25 to 50%.
For the compound `O=c1[nH]c(-c2cc(OCC(F)F)ccn2)nc2cc(F)ccc12`, in experiment [3] (setting [4]), the inhibition at 20 µM was in the range of 51 to 75%.
For `COC(=O)c1sccc1S(=O)(=O)NCCCCCc1nc(-c2ccc(C)cc2)no1`, in experiment [3] (setting [5]), the inhibition at 20 µM lay within 25 to 50%.
Regarding `COC(=O)c1cccc(CN2CCN(c3cccc(C(F)(F)F)c3)CC2)c1`, in experiment [3] (setting [4]), the inhibition at 20 µM lay in the range of 25 to 50%.
With `COc1ccc(OC)c(CCC(=O)N2CCN(c3ncc(C(F)(F)F)cc3Cl)CC2)c1`, in experiment [3] (setting [5]), the inhibition at 20 µM is 25 to 50%.
As for `CN(CC(=O)N1CCOCC1)C(=O)c1ccc(COc2ccc(F)cc2)o1`, in experiment [3] (setting [4]), the inhibition at 20 µM lay in the range of 1 to 25%.
Turning to `Cc1ccc(OS(=O)(=O)NCCC(c2ccccc2)c2ccccc2)cc1`, in experiment [3] (setting [5]), the inhibition at 20 µM fell in the range of 1 to 25%.
Same read-out and setting: then `CN(C)S(=O)(=O)c1ccc(OCCn2c(=O)c(N3CCCCC3)c(N)n(C)c2=O)cc1`, with 1 to 25%; and `CC(C)CC(NC(=O)OC(C)(C)C)c1noc(Cc2c[nH]c3ccccc23)n1` (stereo not drawn), with 1 to 25%; and `CCOc1ccc(-c2nc(CSc3nc4ccccc4n3CCOC)cs2)cc1OC`, with 25 to 50%.
As to `COc1cccc(COCC(=O)Nc2nnc(-c3ccccn3)[nH]2)c1` [drawing 2534], the inhibition at 20 µM in experiment [3] (setting [6]) lay within 51 to 75%.
In the case of `COc1ccc(CN(C)Cc2ccc(OC)c(SC(F)(F)F)c2)cc1F`, the inhibition at 20 µM in experiment [3] (setting [5]) lay within 25 to 50%.
In the case of `O=C(Cn1c(=O)oc2ccccc21)Nc1nnc(-c2ccccn2)[nH]1` [drawing 2502], the inhibition at 20 µM in experiment [3] (setting [6]) was 51 to 75%.
`CCc1ccc(OCC(=O)Nc2nnc(-c3ccccn3)[nH]2)cc1`: the inhibition at 20 µM in experiment [3] (setting [4]) lay in the range of 25 to 50%.
In the case of `COCCn1c(SC(C)c2nc(-c3cccnc3)no2)nc2cc(Cl)ccc2c1=O` (stereo not drawn), the inhibition at 20 µM in experiment [3] (setting [5]) lay within 25 to 50%.
For the compound `CC(C)(C)c1ccc(OCC(=O)N2N=CCC2(O)C(F)(F)F)cc1` (stereo not drawn), the inhibition at 20 µM in experiment [3] (setting [4]) lay within 25 to 50%.
